Assay results published in publication PMC10077338, “Galangin delivered by retinoic acid-modified nanoparticles targeted hepatic stellate cells for the treatment of hepatic fibrosis” (RSC Advances, 2023).

Assays:
aHSC = test system: aHSC; design: method as in PMID 32893252; details: cited from earlier work
[1] = Pharmacokinetics after oral administration; type: in vivo, Sprague–Dawley rats
Protocol: All animal procedures were approved by the Animal Care and Use Committee of the Renmin Hospital of Wuhan University (Laboratory Animal Welfare and Ethics Committee [Institutional Animal Care and Use Committee] Issue No.: WDRM NO.20200501). […] Free GA, GA-NPs, and RA-GA-NPs were orally administered (GA concentration: 50 mg kg^−1). Subsequently, 200 μL of blood were collected at predetermined time points (i.e., 0.5, 1, 2, 4, 6, 8, 10, 12, and 24 h). The concentrations of GA in plasma were determined by HPLC. Plasma samples (200 μL) were extracted using 200 μL of acetonitrile, vortexed for 10 min, and centrifuged at 5000 rpm for 5 min. Thereafter, the supernatant was collected and filtered using a 0.45 μm nylon 66 membrane. Finally, each sample (20 μL) was injected into the HPLC system.

HF model induced by CCl4 = experiment: Anti-HF effect in vivo; design: species or system C57BL/6 mice; details: 20 mg kg^−1 oral daily for 4 weeks, CCl4 mice
Protocol: Forty 6 weeks-old male C57BL/6 mice (weight: 20 ± 2 g; […]) were randomly divided into five groups (n = 8 per group): control; tetrachloromethane (CCl4)-treated; free GA; GA-NPs; and RA-GA-NPs. The HF model was induced by intraperitoneal injection with 10% CCl4 (diluted in olive oil, 5 mL per kg body weight) thrice per week for 4 consecutive weeks.[33–35] The control mice received an intraperitoneal injection with an equal volume of olive oil. The mice in all treatment groups received an injection with CCl4 for 4 weeks, as well as free GA, GA-NPs, or RA-GA-NPs (20 mg kg^−1) through oral administration once daily for 4 weeks; the dose of GA was based on previous reports.[36,37] All mice were sacrificed 12 h after the last administration, and blood specimens were collected through retro-orbital bleeding. Serum was subsequently separated by centrifugation at 3500 rpm for 15 min at 4 °C and stored at −20 °C. […] is typically used to discriminate collagen fibers from tissues on histological slides. […] The levels of ALT, AST, and Hyp were determined using detection kits, respectively, according to the instructions provided by the manufacturer. In addition, the serum levels of markers, HA, LN, PC III, and Col IV were determined using ELISA kits based on the respective protocols.

[2] = both sexes, Sprague-Dawley, rat, plasma, GA 50 mg kg^−1, n = 6

O=c1c(O)c(-c2ccccc2)oc2cc(O)cc(O)c12 [Free GA, 3,5,7-trihydroxyflavone]
concentration at which inhibition of aHSC in vitro was initiated (aHSC): 6 µg/mL | AUC ([1]; GA 50 mg kg^−1, n = 6): 2580 ± 470 ng·h/mL | CL ([1]; GA 50 mg kg^−1, n = 6): 3.99 ± 0.73 (mg kg^−1)/h(μg mL^−1) | V d ([1]; GA 50 mg kg^−1, n = 6): 20.98 ± 4.22 L/kg | time for which serum drug concentrations were detected / maintained ([1]; GA 50 mg kg^−1, sampling up to 24 h): up to 12 h | MRT [1, 2]: 5.25 ± 0.16 h | half-life [1, 2]: 3.64 ± 0.11 h | effect on the biomarkers of HF (HA, LN, PC III, Col IV) (HF model induced by CCl4): modest anti-fibrotic effect
